This is an account of results in patent publication US20260263593A1, “ALLERGY ANTIGEN AND EPITOPE THEREOF” (HOYU CO., LTD., priority 2018, published 2026).

The test system of the first assay is IgE antibody present in the serum of a shrimp-allergic patient. Description: Epitope mapping (1): array of overlapping 15-amino-acid peptides, chemiluminescence. The format is binding, human. To be noted: 15-amino-acid peptide array; serum of 37 patients; difference from N2nd value of 5 non-shrimp-allergic subjects at least 35,000. The protocol: Epitope mapping was carried out using a library of overlapping peptides (length: 15 amino acids) corresponding to the amino acid sequences identified as allergy components of shrimp and the amino acid sequence of arginine kinase. Specifically, the library of overlapping peptides was prepared on the basis of the amino acid sequences of SEQ ID NOs: 117, 141, 146, 2, 45, 87, 276, 161, 230, 179, 362, 381, 399, 421, 455, 481, 486, 520, 541, 300 and 306, and arginine kinase.
The peptides to be synthesized were shifted by 10 amino acids.
For preparation of peptide arrays, the Intavis CelluSpots™ technique was used. Specifically, the peptide arrays were prepared by the following procedure: (1) synthesizing peptides of interest on amino-modified cellulose disks using an automated chemical synthesis apparatus (Intavis MultiPep RS), (2) dissolving the amino-modified cellulose disks to obtain a cellulose-bound peptide solution, and (3) spotting the cellulose-bound peptides onto coated glass slides. The details of each procedure are as described below.
Peptide synthesis was carried out in incremental steps through 9-fluorenylmethoxycarbonyl (Fmoc) chemical reaction on amino-modified cellulose disks in 384-well synthesis plates. Specifically, amino acids in which a Fmoc group is bonded to an amino group were activated in a solution of N,N′-diisopropylcarbodiimide (DIC) and 1-hydroxybenzotriazole (HOBt) in dimethylformamide (DMF) and added dropwise to the cellulose disks so that the Fmoc group-bound amino acids were bound to the amino groups on the cellulose disks (coupling). Unreacted amino groups were capped with acetic anhydride and washed with DMF. Furthermore, the Fmoc groups were eliminated from the amino groups of the amino acids bound to the amino groups on the cellulose disks by treatment with piperidine and washing with DMF. The amino acids bound to the amino groups on the cellulose disks were repetitively subjected to the coupling, the capping, and the Fmoc group elimination described above to elongate the amino terminus for peptide synthesis.
The peptides-bound cellulose disks of interest obtained above in the subsection titled “(1) Synthesis of peptide” were transferred to 96-well plates and treated with a side chain deprotection mixed solution of trifluoroacetic acid (TFA), dichloromethane, triisopropylsilane (TIPS), and water for deprotection of amino acid side chains. Then, the deprotected cellulose-bound peptides were dissolved in a mixed solution of TFA, trifluoromethanesulfonic acid (TFMSA), TIPS, and water and precipitated in tetrabutyl methyl ether (TBME), and the precipitate was resuspended in dimethyl sulfoxide (DMSO) and mixed with a mixed solution of NaCl, sodium citrate, and water to obtain a peptide solution for slide spotting.
The peptide solution for slide spotting obtained above in the subsection titled “(2) Dissolution of amino-modified cellulose disk” was spotted onto Intavis CelluSpots™ slides using Intavis Slide Spotting Robot, and the slides were dried to prepare peptide arrays.
The presence or absence of binding, to each peptide fragment, of an IgE antibody present in the serum of a shrimp-allergic patient was measured through antigen-antibody reaction using the peptide arrays. […]
As for “E29: common 15-residue IgE-binding epitope sequence of polypeptide (E29), myosin heavy chain type 1-derived (QRYNILAAKEMLEAK; VAR_SEQ 1..15 epitope) [Epitope E29]”, the “Peptide bound to an IgE antibody in serum in a patient-specific manner” value (shortened to “Peptide bound to an IgE antibody”) is on record as “bound to an IgE antibody in serum in a patient-specific manner”.

On to “E2: common 15-residue IgE-binding epitope sequence of polypeptide (E2), myosin heavy chain type 1-derived (ARVISQSPAERGYHI; VAR_SEQ 1..15 epitope) [Epitope E2]”, for which the “Peptide bound to an IgE antibody” value is recorded as “bound to an IgE antibody in serum in a patient-specific manner”.

With “E23: common 15-residue IgE-binding epitope sequence of polypeptide (E23), cyclophilin A-derived (SCFHRVIPNFMCQGG; VAR_SEQ 1..15 epitope) [Epitope E23]”, the “Peptide bound to an IgE antibody” value is reported as “bound to an IgE antibody in serum in a patient-specific manner”.

Turning to “E33: common 15-residue IgE-binding epitope sequence of polypeptide (E33), myosin heavy chain type 1-derived (TKPYDPKKSCWVPDD; VAR_SEQ 1..15 epitope) [Epitope E33]”, the “Peptide bound to an IgE antibody” value was “bound to an IgE antibody in serum in a patient-specific manner”.

For a further assay, the system named is IgE antibodies from patients having allergies to each food. Description: Confirmation of epitope cross-reactivity by ELISA with N-terminally biotinylated peptides. Type of assay: binding, human. The following applies: serum of allergic patient versus nonallergic subject. As for the experimental part: The binding activity of peptides comprising the amino acid sequences described in the column “Synthesis sequence” and the rightmost column “SEQ ID NO” of Table 3 against IgE antibodies from patients having allergies to each food described in the column “Food with which cross-reactivity was confirmed” in Tables 3-1 to 3-50 was confirmed by ELISA. The peptides were synthesized such that the peptides were N-terminally biotinylated by the Fmoc method.
To be specific, ELISA was carried out according to the following procedure. • (1) The concentrations of the biotinylated peptides were adjusted to 10 μg/mL with PBST (0.1% Tween 20). • (2) Each peptide solution was added at 20 μL to each well of a 384-well plate coated with streptavidin, and shaken at room temperature for one hour. After collection of the solution, the wells were washed with PBS five times. • (3) Pierce Protein-Free (PBS) Blocking Buffer (produced by Thermo) was added at 40 μL thereto and shaken at room temperature for one hour. After removal of the solution, the wells were washed with PBST five times. • (4) 2% serum/Canget SignalSolution I (produced by TOYOBO) was added at 20 μL thereto and shaken at room temperature for one hour. After removal of the solution, the wells were washed with PBST five times. • (5) A diluted secondary antibody solution (1:10000, Canget SignalSolution II (produced by TOYOBO)) was added at 20 μL thereto and shaken at room temperature for one hour. After removal of the solution, the wells were washed with PBST five times. • (6) 1-Step Ultra TMB-ELISA (produced by Thermo) was added at 20 μL thereto and shaken at room temperature for 15 minutes. • (7) 2 M H2SO4 was added at 20 μL thereto. Absorbance at 450 nm was measured.
Peptides having these amino acid sequences were prepared by the same procedure as described in Example 4(A), and the presence or absence of binding thereto of IgE antibodies present in the serum of an allergic patient and the serum of a nonallergic subject was measured. The serum of two nonallergic subjects was measured, and values obtained by dividing the measurement values by an average value thereof were described.
The ordinate of each figure depicts “absorbance of the allergic patient/absorbance of the nonallergic patient (healthy subject)”. Different contrasts of two bar graphs for the same sequences mean separate patients. For example, graph No. 8 and No. 10 in FIG. 7 are results about different patients as to peptides having the same sequences. The names of the cooking ingredients described in each graph are the names of cooking ingredients containing a polypeptide comprising an amino acid sequence serving as the basis of each synthetic sequence used.
On to “SEQ ID NO: 662: polypeptide consisting of 4 amino acid residues, epitope sequence of polypeptide (E11) (NAKR; VAR_SEQ 1..4 epitope)”, for which the Epitope cross-reactivity result is reported as “confirmed in many samples”.

As for “SEQ ID NO: 655: polypeptide consisting of 4 amino acid residues, epitope sequence of polypeptide (E11) (KNAK; VAR_SEQ 1..4 epitope)”, the Epitope cross-reactivity result is recorded as “confirmed in many samples”.

On to “SEQ ID NO: 636: polypeptide consisting of 4 amino acid residues, epitope sequence of polypeptide (E9) (SQKE; VAR_SEQ 1..4 epitope)”, for which the Epitope cross-reactivity entry is “confirmed in many samples”.

As to “SEQ ID NO: 595: polypeptide consisting of 4 amino acid residues, epitope sequence of polypeptide (E5) (MEEL; VAR_SEQ 1..4 epitope)”, the Epitope cross-reactivity result is “confirmed in many samples”.

Regarding “SEQ ID NO: 587: polypeptide consisting of 4 amino acid residues, epitope sequence of polypeptide (E4) (ELEE; VAR_SEQ 1..4 epitope)”, the Epitope cross-reactivity entry is reported as “confirmed in many samples”.

As to “SEQ ID NO: 593: polypeptide consisting of 4 amino acid residues, epitope sequence of polypeptide (E4) (TLLEPE; VAR_SEQ 1..6 epitope)”, the Epitope cross-reactivity entry is “confirmed in many samples”.
